How the values were obtained:
[1] = molar heat capacity at constant pressure; conditions: 101.33 kPa, Liquid, Small sample (50 mg) DSC
[2] = refractive index (Na D-line) (dimensionless); conditions: 298.15 K; 101.33 kPa; Liquid; Standard Abbe refractometry
[3] = 298.15 K; 101.33 kPa; Liquid; Pycnometric method

OC1CCCC1 [cyclopentanol]
[1]
Conditions | molar heat capacity at constant pressure [J/K/mol]
284.16 K | 170.24
285.15 K | 170.99
286.16 K | 171.81
287.14 K | 172.53
288.15 K | 173.41
289.16 K | 174.28
290.14 K | 175.01
291.15 K | 175.87
292.16 K | 176.75
293.14 K | 177.58
294.15 K | 178.43
295.16 K | 179.3
296.14 K | 180.09
297.15 K | 180.97
298.14 K | 181.8
298.15 K | 181.82
298.16 K | 181.83
299.14 K | 182.68
300.15 K | 183.51
301.16 K | 184.44
302.14 K | 185.33
303.15 K | 186.22
304.16 K | 187.09
305.14 K | 188.03
306.15 K | 188.94
307.16 K | 189.83
308.14 K | 190.71
309.15 K | 191.61
310.16 K | 192.53
311.14 K | 193.42
312.15 K | 194.35
313.16 K | 195.28
314.14 K | 196.15
315.15 K | 197.1
316.16 K | 198.01
317.14 K | 198.91
318.15 K | 199.88
319.15 K | 200.81
320.14 K | 201.63
321.15 K | 202.63
322.15 K | 203.57
323.14 K | 204.44
324.15 K | 205.36
325.15 K | 206.28
326.16 K | 207.24
327.15 K | 208.09
328.15 K | 209.05
329.14 K | 209.96
330.14 K | 210.87
331.15 K | 211.73
332.14 K | 212.64
333.14 K | 213.55
334.15 K | 214.51
335.16 K | 215.32
336.14 K | 216.18
337.15 K | 217.08
338.16 K | 218.05
339.14 K | 218.88
340.15 K | 219.81
341.16 K | 220.6
342.14 K | 221.48
343.15 K | 222.33
344.16 K | 223.27
345.14 K | 224.05
346.15 K | 224.85
347.16 K | 225.68
348.14 K | 226.51
349.15 K | 227.32
350.15 K | 228.13
351.14 K | 228.9
352.15 K | 229.66
353.15 K | 230.44

Conditions | mass density [kg/m3] | refractive index
[2] | – | 1.4512
[3] | 942.86 | –
